According to US20220288045A1, “Stable Pharmaceutical Composition Comprising Esomeprazole And Sodium Bicarbonate” (Chong Kun Dang Pharmaceutical Corp., priority 2019, published 2022):
Read-outs that look alike come from different tables or passages of the source. Each block holds one molecule with its values, some of them ahead of it.

Key:
[1] = Stability test of esomeprazole and omeprazole according to pH (HPLC content in buffer solution); format: physicochemical; conditions: in % (unit assumed)
Description: After adding each 2 mL of 20 mg/mL strength of esomeprazole and omeprazole solutions to 100 mL of buffer solution, the content according to pH was analyzed, and the analysis method is as follows. <Analysis Method> A) Detector: Ultraviolet visible light absorption spectrometer (measurement wavelength: 280 nm) B) Column: Inertsil C8-3 (4.6×150 mm, 5 μm) or equivalent column C) Injection amount: 20 μl D) Flow rate: 1.5 mL/min E) Column temperature: constant temperature around 40° C. F) Sample temperature: constant temperature around 10° C.

[2] = aqueous solutions with 3 or less of a pH value; cited from earlier work
[3] = for pH: 200 mL artificial gastric juice + 200 mL purified water, 37° C.
Source text: To set the content of sodium bicarbonate, the drug release conditions and gastric juice conditions were set as follows.

content according to pH ([1]; pH4.0, 5 min): 64.1 | content according to pH ([1]; pH4.0, 10 min): 31.0 | content according to pH ([1]; pH4.0, 15 min): 15.9 | content according to pH ([1]; pH4.0, 30 min): 6.9 | content according to pH ([1]; pH4.0, 45 min): 1.7 | content according to pH ([1]; pH4.0, 60 min): 0.9 | content according to pH ([1]; pH4.0, 120 min): 0.1 | content according to pH ([1]; pH6.0, 5 min): 74.4 | content according to pH ([1]; pH6.0, 10 min): 72.8 | content according to pH ([1]; pH6.0, 15 min): 71.0 | content according to pH ([1]; pH6.0, 30 min): 68.9 | content according to pH ([1]; pH6.0, 45 min): 66.3 | content according to pH ([1]; pH6.0, 60 min): 63.6 | content according to pH ([1]; pH6.0, 120 min): 54.9 | content according to pH ([1]; pH6.8, 5 min): 95.6 | content according to pH ([1]; pH6.8, 10 min): 90.8 | content according to pH ([1]; pH6.8, 15 min): 90.5 | content according to pH ([1]; pH6.8, 30 min): 89.7 | content according to pH ([1]; pH6.8, 45 min): 88.9 | content according to pH ([1]; pH6.8, 60 min): 88.3 | content according to pH ([1]; pH6.8, 120 min): 86.2 | content according to pH ([1]; pH7.0, 5 min): 99.6 | content according to pH ([1]; pH7.0, 10 min): 99.0 | content according to pH ([1]; pH7.0, 15 min): 99.3 | content according to pH ([1]; pH7.0, 30 min): 98.9 | content according to pH ([1]; pH7.0, 45 min): 98.7 | content according to pH ([1]; pH7.0, 60 min): 98.1 | content according to pH ([1]; pH7.0, 120 min): 96.8 | content according to pH ([1]; pH7.3, 5 min): 100.1 | content according to pH ([1]; pH7.3, 10 min): 100.1 | content according to pH ([1]; pH7.3, 15 min): 100.0 | content according to pH ([1]; pH7.3, 30 min): 100.0 | content according to pH ([1]; pH7.3, 45 min): 100.0 | content according to pH ([1]; pH7.3, 60 min): 100.0 | content according to pH ([1]; pH7.3, 120 min): 99.90 | content according to pH ([1]; pH7.5, 5 min): 99.4 | content according to pH ([1]; pH7.5, 10 min): 99.3 | content according to pH ([1]; pH7.5, 15 min): 99.2 | content according to pH ([1]; pH7.5, 30 min): 99.1 | content according to pH ([1]; pH7.5, 45 min): 99.3 | content according to pH ([1]; pH7.5, 60 min): 99.1 | content according to pH ([1]; pH7.5, 120 min): 98.2 | content according to pH ([1]; pH8.0, 15 min): 101.1 | content according to pH ([1]; pH8.0, 30 min): 100.9 | content according to pH ([1]; pH8.0, 45 min): 100.7 | content according to pH ([1]; pH8.0, 60 min): 100.7 | content according to pH ([1]; pH8.0, 120 min): 100.0
Structure (SMILES): COc1ccc2nc([S@@+]([O-])Cc3ncc(C)c(OC)c3C)[nH]c2c1 [S-omeprazole, (S)-5-methoxy-24(4-methoxy-3,5-dimethyl-2-pyridinyl)-methyllsulfinyl-1H-benzimidazole]
decomposition half-life [2]: less than 10 minutes

amount of sodium bicarbonate that can represent neutral pH by neutralizing 200 mL of artificial gastric juice ([3]; 200 mL artificial gastric juice): at least 600 mg | pH ([3]; Sodium bicarbonate 500 mg): 5.77 | pH ([3]; Sodium bicarbonate 600 mg): 6.51 | pH ([3]; Sodium bicarbonate 700 mg): 7.30 | pH ([3]; Sodium bicarbonate 800 mg): 7.30 | pH ([3]; Sodium bicarbonate 900 mg): 7.31 | pH ([3]; Sodium bicarbonate 1,000 mg): 7.37 | pH ([3]; Sodium bicarbonate 1,100 mg): 7.38 | pH ([3]; Sodium bicarbonate 1,200 mg): 7.38 | pH ([3]; Sodium bicarbonate 1,300 mg): 7.40
Structure (SMILES): O=C([O-])O.[Na+] [Sodium bicarbonate]
